Values after ≈ are worked out from the molar mass of the structure shown.
Experiments:
P. aeruginosa (Ps 366) = assay: HN12b in combination with efflux pump inhibitors (CB method, FICI)
Procedure: (§1) 96-well microtiter plates containing MIC25 concentrations of the Efflux pump inhibitor (CCCP, PAβN) and HN12b antimicrobial drugs alone and in CB combination were used. The MICs of the individual drugs HN12b, PAβN and CCCP (0.25 to 128 μg/ml) and of the combinations were determined using the broth microdilution technique as recommended by the CLSI. Briefly, the broth microdilution plates were inoculated with each test organism to yield the appropriate density (10^5 CFU/ml) in 100 μl Mueller-Hinton broth (MHB) and incubated for 24 h at 37° C. in ambient air. One well with no antibiotic was used as a positive growth control on each plate. Plates were read for visual turbidity, and results were recorded after 24 h of incubation at 37° C. in ambient air by using a magnifying mirror reader, as turbidity in wells indicated growth of the microorganism. The MIC was determined as the well in the microtiter plate with the lowest drug concentration at which there was no visible growth. […] MICAB was defined as the MIC of drug A in the presence of drug B; MICBA was defined as the MIC of drug B in the presence of drug A.
(§2) The fractional inhibitory concentration index (FICI) was calculated for each antibiotic in each combination by using the following formula: FICA+FICB=FICI, where FICA equals the MIC of drug A in combination divided by the MIC of drug A alone and FICB equals the MIC of drug B in combination divided by the MIC of drug B alone. The FICIs were interpreted as follows: FICI of ≤0.5 will correspond to synergy; FICI of >0.5 to ≤1 will correspond to additivity; FICI of >1 to ≤4 will correspond to no interaction (indifference), and FICI of >4 will correspond antagonism.

[1] = system: efflux and porin genes (acrAB-tolC, emrAB-tolC, ompC, ompF) in E. coli K12 cells; assay: Gene expression analysis by real-time qPCR; format: cell-based, Escherichia coli; settings: E. coli K12 cells treated with ¼ MIC
E. coli K12 mutant ΔompC = assay: Susceptibility of E. coli K12 and mutants (MIC90); settings: Escherichia coli
Procedure: (§3) MICs were determined by the broth microdilution method according to CLSI methods (Clinical and Laboratory Standards Institute, 2005). Inoculants were incubated at 37° C. on cation adjusted Mueller Hinton (MH) Broth for 18 to 24 h. Compound were dissolved in media to 10 doubling dilutions from 128 to 0.125 μg/mL. All the bacterial strains were grown in 96 well plate with low evaporation lid (Falcon, Becton Dickinson) in presence of derivatives of benzimidazoles at 0.125, 0.25, 0.5, 1, 2, 4, 8, 16, 32, 64, 128, 256 μg/mL concentrations. […] Plates were read by Tecan Micro-plate Reader at 600 nm.

[2] = system: Providencia sp. (MTCC 2102); assay: HN12b in combination with efflux pump inhibitors (CB method, FICI); settings: for FICI: Providencia sp. (MTCC 2102)
Procedure: as §1, §2

E. coli 401^R = assay: Susceptibility (MIC, PAE, MBC), broth microdilution; settings: Escherichia coli
Procedure: as §3

[3] = system: Klebsiella planticola (K1164); assay: Susceptibility (MIC50/MIC90), broth microdilution
Procedure: as §3

Providencia sp. (P592) = assay: HN12b in combination with efflux pump inhibitors (CB method, FICI)
Procedure: as §1, §2

[4] = system: Klebsiella planticola (MTCC 2272); assay: Susceptibility (MIC50/MIC90), broth microdilution; settings: MTCC2272
Procedure: as §3

E. coli 132^R = assay: Susceptibility (MIC, PAE, MBC), broth microdilution; settings: Escherichia coli
Procedure: as §3

Enterococcus sp. (2105) = assay: HN12b in combination with efflux pump inhibitors (CB method, FICI)
Procedure: as §1, §2

E. coli 118^R = assay: Susceptibility (MIC, PAE, MBC), broth microdilution; settings: Escherichia coli
Staphylococcus sp. (976) = assay: Susceptibility (MIC50/MIC90), broth microdilution
Procedure: as §3

P. aeruginosa (MTCC1688) = assay: HN12b in combination with efflux pump inhibitors (CB method, FICI)
Procedure: as §1, §2

[5] = system: isogenic efflux deleted strains; assay: Susceptibility of isogenic efflux deleted strains versus wild type; format: cell-based, Escherichia coli; settings: in comparison to wild type strains
E. coli K12 mutant ΔacrA = assay: Susceptibility of E. coli K12 and mutants (MIC90); settings: Escherichia coli
Procedure: as §3

[6] = system: most of the pathogenic bacterial strains; assay: MIC of HN12b in combination with efflux pump inhibitor; settings: combination with CCCP and PAβN
Procedure: Briefly, the broth microdilution plates were inoculated with each test organism to yield the appropriate density (10^5 CFU/ml) in 100 μl Mueller-Hinton broth (MHB) and incubated for 24 h at 37° C. in ambient air. One well with no antibiotic was used as a positive growth control on each plate. Plates were read for visual turbidity, and results were recorded after 24 h of incubation at 37° C. in ambient air by using a magnifying mirror reader, as turbidity in wells indicated growth of the microorganism. The MIC was determined as the well in the microtiter plate with the lowest drug concentration at which there was no visible growth. […] MICAB was defined as the MIC of drug A in the presence of drug B; MICBA was defined as the MIC of drug B in the presence of drug A.

E. coli 451^R = assay: Susceptibility (MIC, PAE, MBC), broth microdilution; settings: Escherichia coli
Procedure: as §3

[7] = P. aeruginosa (Ps 366), HN12b + CCCP
[8] = Providencia sp. (P592), HN12b + PAβN
[9] = Enterococcus sp. (2105), HN12b + CCCP
[10] = P. aeruginosa (MTCC1688), HN12b + CCCP

CCCN1CCN(c2nc3ccc(-c4nc5ccccc5[nH]4)cc3[nH]2)CC1 [HN12b, 2′-(4-propylpiperazine-1-yl)-1H, 3′H-2,5′-bibenzimidazole]
FICI (P. aeruginosa (Ps 366); [7]): 0.6 | Interpretation (P. aeruginosa (Ps 366); [7]): Synergy (FICI of ≤0.5 will correspond to synergy) | FICI (P. aeruginosa (Ps 366); P. aeruginosa (Ps 366), HN12b + PAβN): 0.9 | MIC90 (P. aeruginosa (Ps 366); Pseudomonas aeruginosa): > 128 µg/mL | gene expression of efflux pumps and porins [1]: acrAB-tolC and emr AB-tolC activation and ompC and ompF down-regulation | MIC90 (E. coli K12 mutant ΔompC): 3.8 µg/mL (≈ 10.5 µM) | FICI ([2]; HN12b + CCCP): 0.6 | FICI ([2]; HN12b + PAβN): 1 | MIC90 ([2]; Providencia, MTCC2102): > 128 µg/mL | MBC (E. coli 401^R): 2 µg/mL (≈ 5.55 µM) | MIC50 (E. coli 401^R): 1 µg/mL (≈ 2.77 µM) | MIC90 (E. coli 401^R): 1.7 µg/mL (≈ 4.72 µM) | MIC50 [3]: 34.4 µg/mL (≈ 95.5 µM) | MIC90 [3]: 124 µg/mL (≈ 344 µM) | MIC90 (Providencia sp. (P592); Providencia): 58 µg/mL | FICI (Providencia sp. (P592); Providencia sp. (P592), HN12b + CCCP): 0.6 | FICI (Providencia sp. (P592); [8]): 0.4 | Interpretation (Providencia sp. (P592); [8]): Synergy (FICI of ≤0.5 will correspond to synergy) | MIC50 [4]: 30 µg/mL (≈ 83.3 µM) | MIC90 [4]: 128 µg/mL (≈ 355 µM) | MBC (E. coli 132^R): 4 µg/mL (≈ 11.1 µM) | MIC50 (E. coli 132^R): 2 µg/mL (≈ 5.55 µM) | MIC90 (E. coli 132^R): 3.5 µg/mL (≈ 9.71 µM) | MIC90 (Enterococcus sp. (2105); Enterococcus): 128 µg/mL | FICI (Enterococcus sp. (2105); [9]): 0.5 | Interpretation (Enterococcus sp. (2105); [9]): Synergy (FICI of ≤0.5 will correspond to synergy) | FICI (Enterococcus sp. (2105); Enterococcus sp. (2105), HN12b + PAβN): 1 | MBC (E. coli 118^R): 2 µg/mL (≈ 5.55 µM) | MIC50 (E. coli 118^R): 1 µg/mL (≈ 2.77 µM) | MIC90 (E. coli 118^R): 1.7 µg/mL (≈ 4.72 µM) | MIC50 (Staphylococcus sp. (976)): 0.31 µg/mL (≈ 0.86 µM) | MIC90 (Staphylococcus sp. (976)): 15.3 µg/mL (≈ 42.5 µM) | FICI (P. aeruginosa (MTCC1688); [10]): 0.6 | Interpretation (P. aeruginosa (MTCC1688); [10]): Synergy (FICI of ≤0.5 will correspond to synergy) | FICI (P. aeruginosa (MTCC1688); P. aeruginosa (MTCC1688), HN12b + PAβN): 1 | MIC90 (P. aeruginosa (MTCC1688); Pseudomonas aeruginosa, MTCC1688): > 128 µg/mL | sensitisation of efflux deleted strains [5]: more sensitised | MIC90 (E. coli K12 mutant ΔacrA): 0.87 µg/mL (≈ 2.41 µM) | reduction in MIC in combination with efflux pump inhibitor [6]: four to eight fold reduction in MIC | MBC (E. coli 451^R): 2 µg/mL (≈ 5.55 µM) | MIC50 (E. coli 451^R): 1 µg/mL (≈ 2.77 µM) | MIC90 (E. coli 451^R): 1.7 µg/mL (≈ 4.72 µM)

From patent publication US11434227B2, “Broad spectrum antibacterial activity of novel bisbenzimidazoles targeting topoisomerase IA and the synergistic composition of bisbenzimidazole with efflux pump inhibitors against pathogenic bacteria” (Jawaharlal Nehru University (JNU), priority 2016, dated 2022)
